Patent publication US8785457B2 (Cellzome Limited, priority 2009, dated 2014)

Experiments:
[1] = test system: S6RP serine-240/244 phosphorylation; assay: In vitro Phospho-S6 cellular assay (pS6RP S240/244) in HEK293T/17 cells; format: cell-based; settings: Homo sapiens, 2 hours, read-out: pS6 IC50
Summary of the method: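 Compounds were tested at eight concentrations on adhered HEK293T/17 cells for 2 h at 37 °C (2% FCS, 0.1% DMSO), at 80,000 cells/well for pAkt S473 and 40,000 for pS6RP S240/244. Lysates were captured on phospho-specific antibody MSD plates with Sulfo-Tag detection. Values came from nonlinear variable-slope regression.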

PI3 Kbeta (PI3 Kb) = target: T1, PI3 Kbeta (PI3 Kb) (Homo sapiens, UniProt P42338); assay: kinobeads assay, PI3Kbeta; format: binding; settings: kinobeads assay, Table 6; read-out: Inhibition values (IC50) PI3Kb
T1 construct: endogenous in cells; host or cells: cell lysate
Summary of the method: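 In this bead competition format, compound and immobilized phenylmorpholin-chromen ligand compete for kinases in cell lysate. Eluted captured kinases were measured by multiplexed immunodetection, and IC50 was calculated.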

T1 sequence (P42338 whole entry): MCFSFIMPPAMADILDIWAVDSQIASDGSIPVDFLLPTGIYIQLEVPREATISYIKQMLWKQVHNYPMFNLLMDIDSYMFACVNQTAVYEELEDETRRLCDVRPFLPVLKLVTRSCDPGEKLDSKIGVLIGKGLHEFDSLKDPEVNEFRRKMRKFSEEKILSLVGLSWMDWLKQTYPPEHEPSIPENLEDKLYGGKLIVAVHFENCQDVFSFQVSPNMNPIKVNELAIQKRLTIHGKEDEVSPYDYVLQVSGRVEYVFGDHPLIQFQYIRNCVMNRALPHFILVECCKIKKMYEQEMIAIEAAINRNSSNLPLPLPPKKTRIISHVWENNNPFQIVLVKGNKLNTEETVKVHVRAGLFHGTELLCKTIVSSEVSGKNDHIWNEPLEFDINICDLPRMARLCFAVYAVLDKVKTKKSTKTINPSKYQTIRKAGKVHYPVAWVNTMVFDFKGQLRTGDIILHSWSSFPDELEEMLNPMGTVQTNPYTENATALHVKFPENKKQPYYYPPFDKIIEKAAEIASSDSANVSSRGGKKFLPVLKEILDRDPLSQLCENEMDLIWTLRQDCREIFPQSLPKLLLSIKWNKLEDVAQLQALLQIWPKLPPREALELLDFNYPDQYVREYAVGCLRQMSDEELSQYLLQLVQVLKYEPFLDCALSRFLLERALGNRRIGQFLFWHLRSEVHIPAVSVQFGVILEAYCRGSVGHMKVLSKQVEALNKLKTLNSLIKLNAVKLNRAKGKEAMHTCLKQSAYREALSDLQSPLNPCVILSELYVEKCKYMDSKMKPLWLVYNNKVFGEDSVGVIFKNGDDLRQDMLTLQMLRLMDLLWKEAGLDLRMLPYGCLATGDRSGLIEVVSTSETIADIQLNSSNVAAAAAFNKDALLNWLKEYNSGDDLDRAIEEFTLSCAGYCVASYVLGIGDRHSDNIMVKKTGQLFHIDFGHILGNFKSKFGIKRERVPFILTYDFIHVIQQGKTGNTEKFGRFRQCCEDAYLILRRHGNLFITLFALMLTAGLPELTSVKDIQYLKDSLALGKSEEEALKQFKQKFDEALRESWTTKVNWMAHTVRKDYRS
T1 sequence (P27986 whole entry partner): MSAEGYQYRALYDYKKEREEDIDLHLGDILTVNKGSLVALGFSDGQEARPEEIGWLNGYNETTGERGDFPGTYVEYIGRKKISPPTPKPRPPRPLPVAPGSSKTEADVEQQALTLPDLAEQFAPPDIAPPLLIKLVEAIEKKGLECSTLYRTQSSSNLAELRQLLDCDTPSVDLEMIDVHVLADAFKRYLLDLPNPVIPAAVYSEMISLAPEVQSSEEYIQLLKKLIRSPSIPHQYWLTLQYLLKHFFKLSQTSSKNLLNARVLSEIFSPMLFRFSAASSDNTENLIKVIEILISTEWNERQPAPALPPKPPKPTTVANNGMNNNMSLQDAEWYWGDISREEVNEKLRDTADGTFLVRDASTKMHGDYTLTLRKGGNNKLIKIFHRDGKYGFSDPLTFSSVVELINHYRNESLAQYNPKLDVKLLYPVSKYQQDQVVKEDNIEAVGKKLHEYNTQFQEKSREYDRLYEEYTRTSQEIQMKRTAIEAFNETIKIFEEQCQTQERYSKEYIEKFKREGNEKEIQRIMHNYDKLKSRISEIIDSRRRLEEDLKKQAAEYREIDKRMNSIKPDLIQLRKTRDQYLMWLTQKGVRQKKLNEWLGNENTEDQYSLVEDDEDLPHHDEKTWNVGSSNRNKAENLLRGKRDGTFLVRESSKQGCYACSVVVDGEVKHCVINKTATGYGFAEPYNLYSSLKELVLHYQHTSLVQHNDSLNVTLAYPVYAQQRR

Row | SMILES | IC50 [1] [nM] | IC50 (PI3 Kbeta (PI3 Kb)) [nM]
1 | CCNC(=O)Nc1ccc(-c2nc3c(c(N4CCOC[C@@H]4C)n2)CCN(C(C)=O)C3)cc1 [Example 59, (S)-1-(4-(7-acetyl-4-(3-methylmorpholino)-5,6,7,8-tetrahydropyrido[3,4-d]pyrimidin-2-yl)phenyl)-3-ethylurea] | 160 | –
2 | CC(C)CN1Cc2nc(-c3ccc(NC(=O)NC4CC4)cc3)nc(N3CCOC[C@@H]3C)c2C1 [Example 65, (S)-1-cyclopropyl-3-(4-(6-isobutyl-4-(3-methylmorpholino)-6,7-dihydro-5H-pyrrolo[3,4-d]pyrimidin-2-yl)phenyl)urea] | 149 | > 10000
3 | CCNC(=O)Nc1ccc(-c2nc3c(c(N4CCOC[C@@H]4C)n2)CN(CC(C)(C)C)C3)cc1 [Example 67, (S)-1-ethyl-3-(4-(4-(3-methylmorpholino)-6-neopentyl-6,7-dihydro-5H-pyrrolo[3,4-d]pyrimidin-2-yl)phenyl)urea] | 143 | > 10000
4 | CCNC(=O)Nc1ccc(-c2nc3c(c(N4CCOC[C@@H]4C)n2)CN(CC(F)(F)F)C3)cc1 [Example 68, (S)-1-ethyl-3-(4-(4-(3-methylmorpholino)-6-(2,2,2-trifluoroethyl)-6,7-dihydro-5H-pyrrolo[3,4-d]pyrimidin-2-yl)phenyl)urea] | 243 | > 10000
5 | CCNC(=O)Nc1ccc(-c2nc3c(c(N4CCOCC4)n2)CN(C)C3)cc1 [Example 69, 1-Ethyl-3-(4-(6-methyl-4-morpholino-6,7-dihydro-5H-pyrrolo[3,4-d]pyrimidin-2-yl)phenyl)urea] | 208 | 1000 to 10000
6 | C[C@H]1COCCN1c1nc(-c2ccc(NC(N)=O)cc2)nc2c1CN(C)C2 [Example 71, (S)-1-(4-(6-methyl-4-(3-methylmorpholino)-6,7-dihydro-5H-pyrrolo[3,4-d]pyrimidin-2-yl)phenyl)urea] | 690 | 1000 to 10000
7 | C[C@H]1COCCN1c1nc(-c2ccc(NC(=O)NCCO)cc2)nc2c1CN(C)C2 [Example 73, (S)-1-(2-hydroxyethyl)-3-(4-(6-methyl-4-(3-methylmorpholino)-6,7-dihydro-5H-pyrrolo[3,4-d]pyrimidin-2-yl)phenyl)urea] | 425 | 1000 to 10000
8 | COC(=O)N1CCc2c(nc(-c3ccc(NC(=O)NC4CC4)cc3)nc2N2CCOC[C@@H]2C)C1 [Example 83, (S)-methyl 2-(4-(3-cyclopropylureido)phenyl)-4-(3-methylmorpholino)-5,6-dihydropyrido[3,4-d]pyrimidine-7(8H)-carboxylate] | 140 | > 10000
9 | C[C@H]1COCCN1c1nc(-c2ccc(NC(=O)Nc3ccn(C)n3)cc2)nc2c1CN(C)C2 [Example 84, (S)-1-(1-methyl-1H-pyrazol-3-yl)-3-(4-(6-methyl-4-(3-methylmorpholino)-6,7-dihydro-5H-pyrrolo[3,4-d]pyrimidin-2-yl)phenyl)urea] | 165 | > 10000
10 | CCNC(=O)Nc1ccc(-c2nc3c(c(N4CCOC[C@@H]4C)n2)CN(C)C3)cc1F [Example 85, (S)-1-ethyl-3-(2-fluoro-4-(6-methyl-4-(3-methylmorpholino)-6,7-dihydro-5H-pyrrolo[3,4-d]pyrimidin-2-yl)phenyl)urea] | 873 | > 10000
11 | C[C@H]1COCCN1c1nc(-c2ccc(NC(=O)NC3CC3)cc2)nc2c1CN(CC(F)(F)F)C2 [Example 101, (S)-1-cyclopropyl-3-(4-(4-(3-methylmorpholino)-6-(2,2,2-trifluoroethyl)-6,7-dihydro-5H-pyrrolo[3,4-d]pyrimidin-2-yl)phenyl)urea] | 252 | –
12 | C[C@H]1COCCN1c1nc(-c2ccc(NC(=O)NC3CC3)cc2)nc2c1CN(C(=O)C1CCOCC1)C2 [Example 129, (S)-1-cyclopropyl-3-(4-(4-(3-methylmorpholino)-6-(tetrahydro-2H-pyran-4-carbonyl)-6,7-dihydro-5H-pyrrolo[3,4-d]pyrimidin-2-yl)phenyl)urea] | 336 | –

Now those with a lower IC50 [1], led by results:

Row | IC50 [1] [nM] | IC50 (PI3 Kbeta (PI3 Kb)) [nM] | SMILES
13 | 52 | – | CCNC(=O)Nc1ccc(-c2nc3c(c(N4CCOC[C@@H]4C)n2)CN(C(=O)OC(C)(C)C)C3)cc1 [Example 1, (S)-tert-butyl 2-(4-(3-ethylureido)phenyl)-4-(3-methylmorpholino)-5H-pyrrolo[3,4-d]pyrimidine-6(7H)-carboxylate]
14 | 34 | > 10000 | CCNC(=O)Nc1ccc(-c2nc3c(c(N4CCOC[C@@H]4C)n2)CCN(C(=O)C(C)(C)C)C3)cc1 [Example 58, (S)-1-ethyl-3-(4-(4-(3-methylmorpholino)-7-pivaloyl-5,6,7,8-tetrahydropyrido[3,4-d]pyrimidin-2-yl)phenyl)urea]
15 | 37 | > 10000 | C[C@H]1COCCN1c1nc(-c2ccc(NC(=O)NC3CC3)cc2)nc2c1CCN(C(=O)C1CC1)C2 [Example 60, (S)-1-(4-(7-(cyclopropanecarbonyl)-4-(3-methylmorpholino)-5,6,7,8-tetrahydropyrido[3,4-d]pyrimidin-2-yl)phenyl)-3-cyclopropylurea]
16 | 22 | > 10000 | CC(C)C(=O)N1CCc2c(nc(-c3ccc(NC(=O)NC4CC4)cc3)nc2N2CCOC[C@@H]2C)C1 [Example 61, (S)-1-cyclopropyl-3-(4-(7-isobutyryl-4-(3-methylmorpholino)-5,6,7,8-tetrahydropyrido[3,4-d]pyrimidin-2-yl)phenyl)urea]
17 | 49 | > 10000 | CC(=O)N1CCc2c(nc(-c3ccc(NC(=O)NC4CC4)cc3)nc2N2CCOC[C@@H]2C)C1 [Example 62, (S)-1-(4-(7-acetyl-4-(3-methylmorpholino)-5,6,7,8-tetrahydropyrido[3,4-d]pyrimidin-2-yl)phenyl)-3-cyclopropylurea]
18 | 30 | > 10000 | C[C@H]1COCCN1c1nc(-c2ccc(NC(=O)NC3CC3)cc2)nc2c1CCN(C(=O)C(C)(C)C)C2 [Example 64, (S)-1-cyclopropyl-3-(4-(4-(3-methylmorpholino)-7-pivaloyl-5,6,7,8-tetrahydropyrido[3,4-d]pyrimidin-2-yl)phenyl)urea]
19 | 74 | > 10000 | CCNC(=O)Nc1ccc(-c2nc3c(c(N4CCOC[C@@H]4C)n2)CN(CC(C)C)C3)cc1 [Example 66, (S)-1-ethyl-3-(4-(6-isobutyl-4-(3-methylmorpholino)-6,7-dihydro-5H-pyrrolo[3,4-d]pyrimidin-2-yl)phenyl)urea]
20 | 133 | > 10000 | CCNC(=O)Nc1ccc(-c2nc3c(c(N4CCOCC4)n2)CN(C(=O)OCC)C3)cc1 [Example 70, Ethyl 2-(4-(3-ethylureido)phenyl)-4-morpholino-5H-pyrrolo[3,4-d]pyrimidine-6(7H)-carboxylate]
21 | 129 | > 10000 | Cc1cc(NC(=O)Nc2ccc(-c3nc4c(c(N5CCOC[C@@H]5C)n3)CN(C)C4)cc2)no1 [Example 72, (S)-1-(4-(6-methyl-4-(3-methylmorpholino)-6,7-dihydro-5H-pyrrolo[3,4-d]pyrimidin-2-yl)phenyl)-3-(5-methylisoxazol-3-yl)urea]
22 | 110 | > 10000 | CCNC(=O)Nc1ccc(-c2nc3c(c(N4CCOC[C@@H]4C)n2)CN(C(C)C)C3)cc1 [Example 74, (S)-1-ethyl-3-(4-(6-isopropyl-4-(3-methylmorpholino)-6,7-dihydro-5H-pyrrolo[3,4-d]pyrimidin-2-yl)phenyl)urea]
23 | 95 | > 10000 | CCNC(=O)Nc1ccc(-c2nc3c(c(N4CCOC[C@@H]4C)n2)CCN(CC(C)C)C3)cc1.O=CO [Example 76, (S)-1-ethyl-3-(4-(7-isobutyl-4-(3-methylmorpholino)-5,6,7,8-tetrahydropyrido[3,4-d]pyrimidin-2-yl)phenyl)urea formate]
24 | 38 | > 10000 | CCNC(=O)Nc1ccc(-c2nc3c(c(N4CCOC[C@@H]4C)n2)CCN(C(=O)OCC)C3)cc1 [Example 77, (S)-ethyl 2-(4-(3-ethylureido)phenyl)-4-(3-methylmorpholino)-5,6-dihydropyrido[3,4-d]pyrimidine-7(8H)-carboxylate]
25 | 35 | > 10000 | CCOC(=O)N1CCc2c(nc(-c3ccc(NC(=O)NC4CC4)cc3)nc2N2CCOC[C@@H]2C)C1 [Example 78, (S)-ethyl 2-(4-(3-cyclopropylureido)phenyl)-4-(3-methylmorpholino)-5,6-dihydropyrido[3,4-d]pyrimidine-7(8H)-carboxylate]
26 | 89 | 1000 to 10000 | C[C@H]1COCCN1c1nc(-c2ccc(NC(=O)Nc3cccc(O)n3)cc2)nc2c1CN(C)C2 [Example 80, (S)-1-(6-hydroxypyridin-2-yl)-3-(4-(6-methyl-4-(3-methylmorpholino)-6,7-dihydro-5H-pyrrolo[3,4-d]pyrimidin-2-yl)phenyl)urea]
27 | 47 | > 10000 | CCNC(=O)Nc1ccc(-c2nc3c(c(N4CCOC[C@@H]4C)n2)CCN(C(=O)OC)C3)cc1 [Example 81, (S)-methyl 2-(4-(3-ethylureido)phenyl)-4-(3-methylmorpholino)-5,6-dihydropyrido[3,4-d]pyrimidine-7(8H)-carboxylate]
28 | 99 | > 10000 | COC(=O)N1Cc2nc(-c3ccc(NC(=O)NC4CC4)cc3)nc(N3CCOC[C@@H]3C)c2C1 [Example 86, (S)-methyl 2-(4-(3-cyclopropylureido)phenyl)-4-(3-methylmorpholino)-5H-pyrrolo[3,4-d]pyrimidine-6(7H)-carboxylate]
29 | 108 | > 10000 | CCNC(=O)Nc1ccc(-c2nc3c(c(N4CCOC[C@@H]4C)n2)CCN(C(=O)NCC)C3)cc1 [Example 87, (S)—N-ethyl-2-(4-(3-ethylureido)phenyl)-4-(3-methylmorpholino)-5,6-dihydropyrido[3,4-d]pyrimidine-7(8H)-carboxamide]
